Where a SMILES comes first, the peptide text is derived from it.
Assay: Acid-stability at pH 1.7 (percent recovered by UHPLC/UV)
Type: physicochemical
Conditions: water pH 1.7, room temperature (about 22° C.)
Experimental: Acid-stability measurements were taken for samples of aspartame, SGMAs, and a combination of SGMAs with the stabilizer. […] Acid-stability was measured in water having a pH of 1.7. The concentration of the aspartame or the SGMAs in the samples during the testing was 0.1 to 10 wt %. The samples were stored at room temperature (nominally about 22° C.) and samples were taken periodically. The concentration of the aspartame, SGMAs, MCQAs and DCQAs, as the case may be, was measured by UHPLC/UV then divided by the original concentration to determine a percent recovered.
FIG. 1 illustrates the results for three samples—one had 3000 ppm (0.3 wt %) aspartame, another had 5 wt % SGMAs, and the third had 5 wt % each of the SGMAs and the stabilizer. Aspartame has limited solubility, but 3000 ppm is on par with concentrations of throw syrups used to make some diet carbonated soft drinks that have about 500 ppm of aspartame. […] After 14 days of storage, the concentration of aspartame was about 78% of the initial concentration; stated another way, about 22% of the aspartame was degraded. In the same 14 days, the concentration of SGMAs in the SGMA-only sample was about 67% of the initial concentration, a degradation of about 33%. That means the SGMA degradation was 50% higher than the aspartame degradation (33% vs 22%).

COC(=O)[C@H](Cc1ccccc1)NC(=O)[C@@H](N)CC(=O)O [aspartame] (H-Asp-Phe-OMe)
degradation after 14 days of storage: about 22%
concentration as percent of the initial concentration (percent recovered) after 14 days of storage (3000 ppm aspartame, 5 wt % SGMAs, or 5 wt % each SGMAs and stabilizer): about 78%

— patent publication US11944112B2, “Stabilized steviol glycoside malonic acid esters” (CARGILL, INCORPORATED, priority 2020, dated 2024)
